Data published in patent US7718651B2, “Inhibitors of FtsZ and uses thereof” (priority 2002, dated 2010).

tested on: M. tuberculosis H37Rv; experiment: microbe, parasite or virus in culture; type: cell-based; settings: not given

| Compound | % Inh [%] |
| --- | --- |
| CCOC(=O)Nc1cc(NCCCCc2ccccc2)c(N)c(N)n1 [Compound A93] | 60 |
| CCOC(=O)Nc1cc2c(c(N)n1)N=C(c1ccccc1)[C@@H](C)N2 [Compound A98] | 57 |
| CCOC(=O)Nc1cc2c(c(N)n1)N=C(c1ccccc1)[C@H](C)N2 [Compound A108] | 45 |
| CCOC(=O)Nc1cc2c(c(N)n1)N=C(c1ccccc1)[C@H](C)N2 [Compound A110] | 43 |

same assay, conditions: M. tuberculosis H37Rv, screen concentration 12.5 g/ml [sic], Table 8

| Compound | % Inh [%] |
| --- | --- |
| CCOC(=O)Nc1cc2[nH]c(-c3ccccc3)nc2c(N(C)Cc2ccccc2)n1 [Compound A3] | 99 |
| CCOC(=O)Nc1cc2[nH]c(-c3ccc(Cl)cc3)nc2c(N(CCc2ccccc2)Cc2ccccc2)n1 [Compound A4] | 99 |
| CCOC(=O)Nc1cc2[nH]c(-c3ccc(C)cc3)nc2c(N(CC)CC)n1 [Compound A13] | 98 |
| CCOC(=O)Nc1cc2[nH]c(-c3ccc([N+](=O)[O-])cc3)nc2c(N(CCc2ccccc2)Cc2ccccc2)n1 [Compound A14] | 98 |
| CCOC(=O)Nc1cc2[nH]c(-c3ccc(Oc4ccccc4)cc3)nc2c(N(CCc2ccccc2)Cc2ccccc2)n1 [Compound A15] | 98 |
| CCOC(=O)Nc1cc2[nH]c(-c3ccc(OC)cc3)nc2c(N(CCc2ccccc2)Cc2ccccc2)n1 [Compound A16] | 98 |
| CCOC(=O)Nc1cc2[nH]c(-c3ccc(CC)cc3)nc2c(N(CCc2ccccc2)Cc2ccccc2)n1 [Compound A17] | 98 |
| CCOC(=O)Nc1cc2[nH]c(-c3cccc4ccccc34)nc2c(N(CCc2ccccc2)Cc2ccccc2)n1 [Compound A18] | 98 |
| CCOC(=O)Nc1cc2[nH]c(CCc3ccccc3)nc2c(N(CCc2ccccc2)Cc2ccccc2)n1 [Compound A19] | 98 |
| CCOC(=O)Nc1cc2[nH]c(-c3ccccc3F)nc2c(N(CCc2ccccc2)Cc2ccccc2)n1 [Compound A20] | 98 |
| CCOC(=O)Nc1cc2nc(-c3ccc(Cl)cc3)[nH]c2c(N(CCc2ccccc2)Cc2ccccc2)n1 [Compound A27] | 97 |
| CCOC(=O)Nc1cc2[nH]c(-c3cc(OC)c(OC)c(OC)c3)nc2c(N(CCc2ccccc2)Cc2ccccc2)n1 [Compound A28] | 97 |
| CCOC(=O)Nc1cc2[nH]c(-c3cc(OC)c(OC)cc3OC)nc2c(N(CCc2ccccc2)Cc2ccccc2)n1 [Compound A29] | 97 |
| COc1ccc(OC)c(-c2nc3c(N(CCc4ccccc4)Cc4ccccc4)nc(NC(=O)O)cc3[nH]2)c1 [Compound A30] | 97 |
| CCOC(=O)Nc1cc2[nH]c(-c3ccccc3)nc2c(N(CCc2ccccc2)Cc2ccccc2)n1 [Compound A31] | 97 |
| CCOC(=O)Nc1cc2[nH]c(-c3ccc(C(F)(F)F)cc3)nc2c(N(CCc2ccccc2)Cc2ccccc2)n1 [Compound A32] | 97 |
| CCOC(=O)Nc1cc(OCC)c2nc(-c3ccccc3)c(-c3ccccc3)nc2n1 [Compound A38] | 95 |
| CCOC(=O)Nc1cc2c(c(N)n1)N=C(CN(C)c1ccccc1)CN2 [Compound A45] | 93 |
| CCOC(=O)Nc1cc(N/N=C/c2ccccc2)c2nc[nH]c2n1 [Compound A48] | 92 |
| CCOC(=O)Nc1cc2nc(-c3ccccc3)c(-c3ccccc3)nc2c(N)n1 [Compound A49] | 92 |
| CCOC(=O)Nc1cc(N/N=C/c2ccccc2)c(N)c(N)n1 [Compound A54] | 91 |
| CCOC(=O)Nc1cc(N/N=C/c2ccccc2)c2nc(SCc3ccccc3)[nH]c2n1 [Compound A57] | 89 |
| CCOC(=O)Nc1cc(NC/C(=N/O)c2ccc(Cl)cc2Cl)c([N+](=O)[O-])c(N)n1 [Compound A58] | 89 |
| CCOC(=O)Nc1cc(Nc2ccccc2)c([N+](=O)[O-])c(N)n1 [Compound A59] | 88 |

| Compound | % Inh [%] |
| --- | --- |
| CCOC(=O)Nc1cc2c(c(N)n1)N=C(c1ccc(F)cc1)CN2 [Compound A60] | 87 |
| CCOC(=O)Nc1cc(NC(c2ccccc2)c2ccccc2)c2ncc(O)nc2n1 [Compound A61] | 87 |
| CCOC(=O)Nc1cc(NCC(O)CN(C)c2ccc(C)cc2)c([N+](=O)[O-])c(N)n1.Cl (stereo not shown) [Compound A62] | 86 |
| CCOC(=O)Nc1cc(NCC(O)CN(C)c2ccccc2)c2nc(O)[nH]c2n1 (stereo not shown) [Compound A63] | 86 |
| CCOC(=O)Nc1cc(Nc2ccccc2)c2nc[nH]c2n1.Cl [Compound A64] | 84 |
| CCOC(=O)Nc1cc2c(c(N)n1)N=C(c1ccccc1)CN2 [Compound A65] | 83 |
| CCOC(=O)Nc1cc(NCc2ccccc2)c([N+](=O)[O-])c(N)n1 [Compound A66] | 83 |
| CCCCC(Nc1cc(NC(=O)OCC)nc(N)c1[N+](=O)[O-])C(C)=O (stereo not shown) [Compound A67] | 81 |
| CCOC(=O)Nc1cc2c(c(N)n1)N=C(c1cccc(OC)c1)CS2 [Compound A68] | 79 |
| CCOC(=O)Nc1cc2[nH]c(C)nc2c(N(CCc2ccccc2)Cc2ccccc2)n1 [Compound A69] | 71 |
| CCOC(=O)Nc1cc(NC(c2ccccc2)c2ccccc2)c2[nH]c(=O)cnc2n1 [Compound A70] | 76 |
| CCOC(=O)Nc1cc(N/N=C/c2ccccc2)c2[nH]c(=S)[nH]c2n1 [Compound A71] | 75 |
| CCOC(=O)Nc1cc2nc(-c3ccccc3)c(-c3ccccc3)nc2c(OCC)n1 [Compound A72] | 75 |
| CCOC(=O)Nc1cc(NCCc2ccccc2)c2nc[nH]c2n1 [Compound A73] | 74 |
| CCOC(=O)Nc1cc2c(c(N)n1)N=C(Cc1ccccc1)[C@H](C)N2 [Compound A74] | 72 |
| Br.CCOC(=O)Nc1cc(N)c([N+](=O)[O-])c(NCC(C)=O)n1 [Compound A75] | 72 |
| CCOC(=O)Nc1cc(N)c([N+](=O)[O-])c(Cl)n1 [Compound A76] | 72 |
| CCOC(=O)Nc1cc2c(c(N)n1)N=C(c1ccccc1)CS2 [Compound A77] | 71 |
| CCOC(=O)Nc1cc2ncc(CN(C)c3ccccc3)nc2c(N)n1 [Compound A78] | 71 |
| CCOC(=O)Nc1cc2c(c(N)n1)N=C(CN(C)c1ccccc1)CN2 [Compound A80] | 70 |
| CCOC(=O)Nc1cc(N)c2ncn(/N=C/c3ccccc3)c2n1 [Compound A81] | 69 |
| CCOC(=O)Nc1cc(NCCc2ccccc2)c([N+](=O)[O-])c(N)n1 [Compound A82] | 68 |
| CCOC(=O)Nc1cc(SC(=N)N)c([N+](=O)[O-])c(N)n1 [Compound A84] | 66 |
| CCOC(=O)Nc1cc2c(c(N)n1)N=C1c3ccccc3CCC1O2.Cl.Cl (stereo not shown) [Compound A85] | 65 |

| Compound | % Inh [%] |
| --- | --- |
| CCOC(=O)Nc1cc(NCCCCc2ccccc2)c2nc[nH]c2n1 [Compound A86] | 65 |
| CCCCC1Nc2cc(NC(=O)OCC)nc(N)c2N=C1C (stereo not shown) [Compound A87] | 64 |
| CCOC(=O)Nc1cc2c(c(N)n1)N=C(c1ccc(C)c(C)c1)CN2 [Compound A88] | 64 |
| CCOC(=O)Nc1cc2c(nc(-c3ccccc3)n2C(c2ccccc2)c2ccccc2)c(Cl)n1 [Compound A89] | 63 |
| CCOC(=O)Nc1cc(NCCCCc2ccccc2)c([N+](=O)[O-])c(N)n1 [Compound A90] | 62 |
| CCOC(=O)Nc1cc2c(nc(SCc3ccc4c(c3)OCO4)n2N)c(N)n1 [Compound A91] | 61 |
| CCOC(=O)Nc1cc(Nc2ccc(Cl)cc2)c(N)c(N)n1 [Compound A92] | 61 |
| CCOC(=O)Nc1cc(Cl)c([N+](=O)[O-])c(NC(=O)OCC)n1 [Compound A94] | 59 |
| CCOC(=O)Nc1cc(NCCc2ccccc2)c(N)c(N)n1.Cl.Cl [Compound A95] | 59 |
| CCOC(=O)Nc1cc2c(c(N)n1)N=C(c1ccc3ccccc3c1)CS2 [Compound A97] | 58 |
| CCOC(=O)Nc1cc(NC(C)[C@H](O)c2ccccc2)c(N)c(N)n1 (stereo partly shown) [Compound A99] | 56 |
| CCOC(=O)Nc1cc(NCC(O)CN(C)c2ccccc2)c([N+](=O)[O-])c(N)n1 (stereo not shown) [Compound A101] | 54 |
| CCOC(=O)Nc1cc(NC(C)CCCN(CC)CC)c2ncc(-c3ccc(C(F)(F)F)cc3)nc2n1 (stereo not shown) [Compound A102] | 54 |
| CCOC(=O)Nc1cc(N)c2ncn(-c3ccccc3)c2n1 [Compound A103] | 53 |
| CCOC(=O)Nc1cc(NC(C)C(O)Cc2ccccc2)c([N+](=O)[O-])c(N)n1 (stereo not shown) [Compound A104] | 51 |
| CCOC(=O)Nc1cc2c(cn1)N=C(c1ccccc1)[C@H](C)N2 [Compound A105] | 49 |
| CCOC(=O)Nc1cc(Cl)c([N+](=O)[O-])c(N)n1 [Compound A106] | 49 |
| CCOC(=O)Nc1cc(NCc2ccccc2)c2nc[nH]c2n1 [Compound A111] | 43 |
| CCOC(=O)Nc1cc(N)c([N+](=O)[O-])c(N[C@H](C)C(=O)c2ccccc2)n1 [Compound A112] | 42 |
| COC(=O)Nc1cc2c(c(N)n1)N=C(c1ccccc1)[C@H](C)N2 [Compound A113] | 41 |
| CCOC(=O)Nc1cc2[nH]c(-c3ccc(OC)cc3)nc2c(N)n1 [Compound A114] | 41 |
| CCOC(=O)Nc1cc(NCCC(O)c2ccccc2)c([N+](=O)[O-])c(N)n1 (stereo not shown) [Compound A115] | 41 |
| CCOC(=O)Nc1cc(NC(c2ccccc2)c2ccccc2)c(N)c(N)n1 [Compound A117] | 40 |

same assay, conditions: Mycobacterium tuberculosis; M. tuberculosis H37Rv; at 12.5% μg/ml (so in the source); read-out: Primary Screen PI (% inhibition of growth)

| Compound | inhibition of growth at 12.5 µg/mL [%] |
| --- | --- |
| CCOC(=O)Nc1cc2nc(-c3ccccc3)c(-c3ccccc3)nc2c(N)n1 [Compound 3302-89F, (5-Amino-2,3-diphenyl-pyrido[3,4-b]pyrazin-7-yl)-carbamic acid ethyl ester] | 92 |
| CCOC(=O)Nc1cc2nc(-c3ccccc3)c(-c3ccccc3)nc2c(OCC)n1 [Compound 3491-23, (5-Ethoxy-2,3-diphenyl-pyrido[3,4-b]pyrazin-7-yl)-carbamic acid ethyl ester] | 95 |

same assay, conditions: in words

| Compound | activity against M. tuberculosis H37Rv in the primary screen |
| --- | --- |
| CCOC(=O)Nc1cc2nc(-c3ccccc3)c(-c3ccccc3)nc2c(N)n1 [Compound 3302-89F, (5-Amino-2,3-diphenyl-pyrido[3,4-b]pyrazin-7-yl)-carbamic acid ethyl ester] | demonstrated activity |
| CCOC(=O)Nc1cc2nc(-c3ccccc3)c(-c3ccccc3)nc2c(OCC)n1 [Compound 3491-23, (5-Ethoxy-2,3-diphenyl-pyrido[3,4-b]pyrazin-7-yl)-carbamic acid ethyl ester] | demonstrated activity |
